Test results taken from patent publication US12251373B2, “Compounds and methods of treating retinal degeneration” (CASE WESTERN RESERVE UNIVERSITY, priority 2017, dated 2025).
pEC50: −log10 of the molar value. Like-named read-outs stand apart in the source and are kept apart here.

How the values were obtained:
Format in all cases: cell-based
mouse P23H opsin mutant = mouse P23H opsin mutant (Mus musculus, UniProt P15409, P23H); assay: β-Gal fragment complementation assay: rescue of P23H opsin transport from ER to plasma membrane, U2OS(PLC-EA/P23H-PK) cells; settings: for Emax: U2OS
Source text: U2OS(PLC-EA/P23H-PK) cells. A U2OS stable cell line was generated by DiscoveRx, Inc. (Fremont, CA, USA) for the β-Gal fragment complementation assay used in the small molecule HTS for rescue of P23H opsin transport. U2OS cells that continually express P23H-PK and PLC-EA fusion proteins were generated. Briefly, this small subunit of […] (PK fragment) was fused to the C-terminal of the mouse P23H opsin mutant, while the large EA fragment, a subunit of […], was fused with PLC, a plasma membrane anchored peptide. Both constructs were subcloned by DicoveRx, Inc. and transferred into U2OS cells by viral infections. Positive clones were selected under treatment with hygromycin and geneticin.
Briefly, U2OS(PLC-EA/P23H-PK) cells were suspended in assay medium at 3×10^5 cells mL^−1. The cell suspension was dispensed into 384-well plates (Greiner Bio-one, Monroe, NC, USA) at 20 μL per well, with a Multidrop dispenser (Thermo Scientific, Waltham, MA, USA). Plates with cells then were centrifuged at 200 g for 15 s before incubation at 37° C. with 5% CO2. Plates were removed 24 h later for treatment with tested compounds. A total of 248 plates containing 79,080 compounds from three small molecule libraries were paired with an equal number of assay plates with cultured cells. Due to a limited capacity, these plates were assayed in seven batches. An average of 56.3 nL of 10 mM compound in DMSO was dispensed into each well from column 3 to 22 of paired assay plates using a 50 nL 384-pintool system, such that the final concentration of each compound was 22.52 μM on average. […] Each assay plate was shaken for 5 s before further incubation at 37° C. with 5% CO2. […] Assay plates were incubated in the dark for 60-90 min, and luminescence was read from each assay plate with an Envision microplate reader (PerkinElmer) during a 0.1 s per well integration time. The mean and s.d. of readouts in column 2 of each plate were calculated as Mean0% and SD0%, whereas the average and s.d. of readouts in column 23 were calculated as Mean100% and SD100%. Equation 1: Activity scores (%)=(RLUcp−Mean0%)/(Mean100%−Mean0%)×100%, where RLUcp is the relative luminescence unit derived for cells treated with a compound. Equation 2: Z′-factor=1-3×(SD0%+SD100%)/(Mean100%−Mean0%); Equation 3: signal-to-background (S/B) ratio=Mean100%/Mean0%. Activities of all tested compounds were registered with their compound ID by GeneData Screener (Genedata, Basel, Switzerland) and Pipeline Pilot software (Accelrys, San Diego, CA, USA). Hits, cherry-picked from a separate stock dose-dependent activity test, were selected with an activity score cutoff at 20%. Activity of each hit was tested again with the β-Gal fragment complementation assay in a 10-dose series with each dose tested in triplicate. The 10 doses tested were 80, 40, 20, 10, 5, 2.5, 1.25, 0.625, 0.313, and 0.156 μM. Dose-dependent curves of each hit compound were fitted with GeneData and Origin software.
Detailed synthetic steps are described in FIG. 18. […] YC-002-YC-021 were purchased from commercial vendors including Enamine LLC (Monmouth Jct., NJ, USA), Matrix Scientific (Columbia, SC, USA) and Tokyo Chemical Industry Co., Ltd. (Portland, OR, USA). […] Activities of YC compounds were tested with the β-Gal fragment complementation assay, as described in a prior section. All YC compounds were tested at 10 doses, each in triplicate: 80, 40, 20, 10, 5, 2.5, 1.25, 0.625, 0.313, and 0.156 μM.

P23H opsin = biological target: T1, P23H opsin (Mus musculus, UniProt P15409, P23H); assay: Immunoblot of P23H opsin glycosylation in NIH3T3 cells; parameters: key to Improved glycosylation: n = no; y = yes; settings: P23H opsin
T1 construct: expressed in transfected cells
Experimental: NIH3T3-(P23H-opsin/GFP) or NIH3T3-(WT-opsin/GFP) cells were seeded in a 48-well plate (Corning Costar) at 3.2×10^5 cells per well and incubated at 37° C. with 5% CO2 for 2 h. One hundred-μL of assay medium containing a compound at 5× its final concentration was added to each well. The plate was gently shaken for 5 s before further incubation at 37° C. with 5% CO2 for 24 h. The assay medium then was aspirated, and cells were lysed with 100 μL per well PBS containing 0.1% Triton X-100 and complete protease inhibitor cocktail (Roche, Basel, Switzerland) followed by sonication for 3 s. Protein concentrations were determined with the Bradford assay. For PNGase F catalyzed deglycosylation, 3 μL of PNGase F (1,500 U, NEB) was added to the cell lysate and the mixture was incubated at room temperature for 1 h before immunoblotting. For NIH3T3-(P23H-opsin/GFP) cells, 15 μg of total protein were loaded per well onto an SDS-polyacrylamide gel; whereas for NIH3T3-(WT-opsin/GFP) cells, 10 μg of total protein was loaded per well. Opsin protein was immunostained with 0.2 μg mL^−1 horseradish peroxidase-conjugated 1D4 anti-rhodopsin antibody. Band intensities were measured with ImageJ software (http://imagej.nih.gov/ij/; National the Institutes of Health, Bethesda, MD, USA) and normalized to a glyceraldehyde 3-phosphate dehydrogenase (GAPDH) loading control.

mouse P23H opsin = biological target: T2, mouse P23H opsin (Mus musculus, UniProt P15409, P23H); assay: Immunostain and image-based high-content analysis of P23H mutant opsin in NIH3T3 cells; settings: ratio of P23H rod opsin fluorescence on plasma membrane to whole cell; for pEC50: read-out: Immunostaining HCS MEM-Total ratio EC50
T2 construct: expressed in transfected cells
Source text: Three NIH3T3 stable cell lines, NIH3T3-(WT-opsin/GFP), NIH3T3-(P23H-opsin/GFP), and NIH3T3-(GFP) were previously generated which stably express mouse WT opsin and GFP; P23H opsin and GFP; and only GFP, respectively. GFP is expressed separately from opsin in these cell lines. NIH3T3 cells were from ATCC. DNA constructs for generating these stable cell lines were confirmed by Sanger sequencing. Expression of GFP was confirmed by green fluorescence imaging, and expression of P23H and WT opsin were confirmed by immunoblots.
To characterize the effect of active compounds on the localization of P23H mutant opsin in mammalian cells, an image-based assay was used with cells immunostained for WT or P23H mutant opsin protein. Briefly, NIH3T3-(P23H-opsin/GFP) or NIH3T3-(WT-opsin/GFP) cells were seeded at 5,000 cells per well in a 384-well cell-carrier plate (PerkinElmer) and incubated at 37° C. with 5% CO2 for 2 h. Cells were treated with compounds as described for the β-Gal fragment complementation assay and incubated in assay medium for 24 h. The assay medium then was aspirated, and cells were fixed with 4% paraformaldehyde at 20 μL per well for 20 min at RT. Cells were immunostained in one of two ways: cell membranes were either permeabilized with 0.1% Triton X-100 for 15 min or left intact and then were incubated with 10% goat serum (Life Technologies). To detect opsin on the cell plasma membrane only, intact cells were immunostained with 20 μL per well of 20 μg mL^−1 B6-30 anti-rhodopsin antibody that recognizes the N-terminal epitope on the extracellular side of rhodopsin. To detect total opsin, cells were permeabilized with Triton X-100 and immunostained with 50 μg mL^−1 1D4 anti-rhodopsin antibody specific for the C-terminal epitope on the intracellular side of rhodopsin. Opsin immunostaining was visualized by incubating cells with 5 μg mL^−1 Cy3-conjugated goat anti-mouse IgG antibody. Three washes with phosphate-buffered saline (PBS: 10 mM Na2HPO4, 1.8 mM KH2PO4, pH 7.4, 137 mM NaCl, and 2.7 mM KCl) were performed between each step of incubation with antibody. In the last wash with PBS, DAPI was added to each well at 300 nM. Fluorescence images were obtained with the Operetta High Content Imaging System (PerkinElmer) using a 20× long objective. Five fields were taken of each well for cell images using three channels for fluorescence: GFP (100 ms), Cy3 (300 ms), and DAPI (50 ms). Images were analyzed with Acapella software from the Columbus data storage and analysis system (PerkinElmer). For cells immunostained with opsin on the non-permeabilized cell membrane only, an average of total fluorescence intensity of Cy3 per cell was used to quantify opsin in each well of the 384-well plate. For cells immunostained with opsin in permeabilized whole cells, an average ratio of Cy3 intensity on the cell plasma membrane (PM) to that of the entire cell (opsin ratio PM-to-total) was calculated for each well of a 384-well plate to quantify opsin transport to the plasma membrane. The plasma membrane was defined within ±5% of the cell border.

[1] = Table 2, modifications at C3 of the furan-2(5H)-one ring, read-out: Potency EC50
[2] = Table 1, experimental maximum, read-out: β-Gal fragment complementation assay Activity score (%) Max (Exp)
[3] = Table 1, fitted maximum, read-out: β-Gal fragment complementation assay Activity score (%) Max (fit)
[4] = read-out: β-Gal fragment complementation assay Activity score (%) EC50
[5] = Table 3, modifications at C4 of the furan-2(5H)-one ring, read-out: Potency
[6] = Table 5, more than one site modified, read-out: Potency

Emax (mouse P23H opsin mutant; read-out: Efficacy (%)) [%]	Improved glycosylation (P23H opsin)	Emax (mouse P23H opsin mutant; [2]) [%]	Emax (mouse P23H opsin mutant; [3]) [%]	pEC50 (mouse P23H opsin mutant; [4])	Immunostaining HCS MEM-Total ratio Max (fit) (mouse P23H opsin)	pEC50 (mouse P23H opsin)	SMILES	further results
43.5							O=C1OCC(c2ccc(Cl)s2)=C1c1cccc(Cl)c1 [YC-034]	pEC50 (mouse P23H opsin mutant; [1]): 5.32
5							O=C1OCC(c2ccc(Cl)cc2)=C1c1cccs1 [YC-003]	pEC50 (mouse P23H opsin mutant; [5]): 4.66
10							O=C1OCC(c2ccc(Br)s2)=C1c1ccc(F)cc1 [YC-009]	pEC50 (mouse P23H opsin mutant; [6]): 5.14
10							O=C1OCC(c2ccc(Br)s2)=C1c1ccc(Cl)cc1 [YC-011]	pEC50 (mouse P23H opsin mutant; [6]): 5.12
160							O=C1OCC(c2ccc(F)s2)=C1c1cccs1 [YC-021]	pEC50 (mouse P23H opsin mutant; [5]): 3.99
11							O=C1OCC(c2ccc(Br)s2)=C1c1ccc(Cl)c(Cl)c1 [YC-008]	pEC50 (mouse P23H opsin mutant; [6]): 4.60
214							O=C1OCC(c2ccc(Cl)s2)=C1c1ccccn1 [YC-043]	pEC50 (mouse P23H opsin mutant; [1]): 4.72
288							O=C1OCC(c2ccc(Cl)s2)=C1c1ccccc1Cl [YC-032]	pEC50 (mouse P23H opsin mutant; [1]): 5.24
111							O=C1OCC(c2ccc(Cl)s2)=C1c1ccccc1[N+](=O)[O-] [YC-013]	pEC50 (mouse P23H opsin mutant; [1]): 4.96
95							Cc1sc(C)c(C2C(=O)OC(=O)C2c2c(C)sc(C)c2C)c1C (centres unmarked) [YC-018]	
6							O=C1OCC(c2cccs2)=C1c1cccs1 [YC-002]	pEC50 (mouse P23H opsin mutant; [5]): 4.48
10							O=C1OCC(c2ccc(F)cc2)=C1c1cccs1 [YC-044]	pEC50 (mouse P23H opsin mutant; [5]): 4.42
38.3							COc1ccccc1C1=C(c2ccc(Cl)s2)COC1=O [YC-033]	pEC50 (mouse P23H opsin mutant; [1]): 5.07

The remaining lines, values behind:

SMILES	Emax (mouse P23H opsin mutant; read-out: Efficacy (%)) [%]	Improved glycosylation (P23H opsin)	Emax (mouse P23H opsin mutant; [2]) [%]	Emax (mouse P23H opsin mutant; [3]) [%]	pEC50 (mouse P23H opsin mutant; [4])	Immunostaining HCS MEM-Total ratio Max (fit) (mouse P23H opsin)	pEC50 (mouse P23H opsin)	further results
O=C(NCC#CCN1CCCC1)c1cc(-c2ccccc2)on1 [Compound F6244-1415]		n	24.8	25.2	5.06	0.063	5.38	
Cc1cc(OCC(=O)Nc2cc(N3CCOCC3)ncn2)cc(C)c1Cl [Compound F6257-1860]		n	211	234	4.97	0.022	5.97	
O=C(C1CC1)N(CCn1cccn1)c1nc2c(Cl)cccc2s1 [Compound F5581-0240]		y	244	230	5.23	0.010	6.19	
O=C(NCCCn1cccc1)c1cc(-c2ccccc2)on1 [Compound F5937-0207]		n	32.8	37.3	5.08	0.021	5.88	
O=C(NCCCOc1cccc2cccnc12)c1cc(-c2ccccc2)on1 [Compound F5875-0200]		n	31.8	51.6	4.60	0.041	5.21	
O=C(Cn1c2c(c(=O)n(C3CCCCC3)c1=O)CCC2)Nc1cccc(F)c1 [Compound F5111-0031]		y	60.4	165	4.27	0.025	5.17	
O=C1OCC(c2ccco2)=C1c1cccs1 [YC-049]								Efficacy (%) (mouse P23H opsin mutant; Table 3, normalized to 5 μM 9-cis-retinal): 112%
COCCNC(=O)c1sc2c(cnc3ccc(OC)cc32)c1-c1ccccc1 [Compound F3382-5924]		y	931	155	4.54	0.046	5.62	
O=C(NCCn1ncc2c(NCc3ccco3)ncnc21)c1cc(-c2ccccc2)on1 [Compound F2902-1134]		n	23.1	31.5	4.67	0.031	5.38	
